Species: Rattus norvegicus
Test: Open TG-GATES - Regimen: Single
Format: toxicity, organism-based, Sprague-Dawley
Parameters: regimen Single, gender Male, age 6 weeks
Details: in vivo, po, 1000 mg/kg, route gavage, dose level High; for APTT / Bas / Eos / Fbg / Hb / Ht / Lym / MCH / MCHC / MCV / Mono / Neu / PT / Plat / RBC / Ret / WBC: tissue Blood; for KIDNEY_L / KIDNEY_R / KIDNEY_TOTAL: tissue Kidney; for LIVER: tissue Liver; for A/G / ALP / ALT / AST / BUN / CRE / Ca / Cl / DBIL / GLC / IP / K / LDH / Na / PL / RALB / TBIL / TC / TG / TP / gamma-GTP: tissue Plasma

SMILES: O=C(N[C@H](CO)[C@H](O)c1ccc([N+](=O)[O-])cc1)C(Cl)Cl [CHLORAMPHENICOL]
- TERMINAL_BW (3 h): 221.6 g
- APTT (3 h): 17.1 s
- Bas (3 h): 0%
- Eos (3 h): 1%
- Fbg (3 h): 263.6 mg/dL
- Hb (3 h): 13.5 g/dL
- Ht (3 h): 39.6%
- Lym (3 h): 73%
- MCH (3 h): 21.7 pg
- MCHC (3 h): 34.2%
- MCV (3 h): 63.7 fL
- Mono (3 h): 3.8%
- Neu (3 h): 21.8%
- PT (3 h): 14.9 s
- Plat (3 h): 112.6 x10_4/uL
- RBC (3 h): 622.4 x10_4/ul
- Ret (3 h): 7.8%
- WBC (3 h): 76.3 x10_2/uL
- KIDNEY_L (3 h): 1 g
- KIDNEY_R (3 h): 1 g
- KIDNEY_TOTAL (3 h): 2 g
- LIVER (3 h): 9.5 g
- A/G (3 h): 0.9
- ALP (3 h): 1586 IU/L
- ALT (3 h): 42 IU/L
- AST (3 h): 78.4 IU/L
- BUN (3 h): 8.4 mg/dL
- CRE (3 h): 0.2 mg/dL
- Ca (3 h): 10.9 mg/dL
- Cl (3 h): 106.6 meq/L
- DBIL (3 h): 0.012 mg/dL
- GLC (3 h): 182.4 mg/dL
- IP (3 h): 9 mg/dL
- K (3 h): 4.2 meq/L
- LDH (3 h): 56.4 IU/L
- Na (3 h): 140 meq/L
- PL (3 h): 137.2 mg/dL
- RALB (3 h): 2.6 g/dL
- TBIL (3 h): 0.064 mg/dL
- TC (3 h): 70.4 mg/dL
- TG (3 h): 63 mg/dL
- TP (3 h): 5.5 g/dL
- gamma-GTP (3 h): 1 IU/L
- TERMINAL_BW (6 h): 221.4 g
- APTT (6 h): 16.8 s
- Bas (6 h): 0%
- Eos (6 h): 1%
- Fbg (6 h): 278.4 mg/dL
- Hb (6 h): 13.9 g/dL
- Ht (6 h): 45.6%
- Lym (6 h): 73.8%
- MCH (6 h): 21.1 pg
- MCHC (6 h): 30.4%
- MCV (6 h): 69.3 fL
- Mono (6 h): 2%
- Neu (6 h): 23.2%
- PT (6 h): 15 s
- Plat (6 h): 113 x10_4/uL
- RBC (6 h): 657.2 x10_4/ul
- Ret (6 h): 7.7%
- WBC (6 h): 59.5 x10_2/uL
- KIDNEY_L (6 h): 0.9 g
- KIDNEY_R (6 h): 0.9 g
- KIDNEY_TOTAL (6 h): 1.8 g
- LIVER (6 h): 8.5 g
- A/G (6 h): 0.9
- ALP (6 h): 1369 IU/L
- ALT (6 h): 33.2 IU/L
- AST (6 h): 69 IU/L
- BUN (6 h): 7.8 mg/dL
- CRE (6 h): 0.2 mg/dL
- Ca (6 h): 11.1 mg/dL
- Cl (6 h): 107 meq/L
- DBIL (6 h): 0.01 mg/dL
- GLC (6 h): 186.2 mg/dL
- IP (6 h): 10.3 mg/dL
- K (6 h): 4.1 meq/L
- LDH (6 h): 57.6 IU/L
- Na (6 h): 141.4 meq/L
- PL (6 h): 128.2 mg/dL
- RALB (6 h): 2.6 g/dL
- TBIL (6 h): 0.072 mg/dL
- TC (6 h): 70 mg/dL
- TG (6 h): 26.2 mg/dL
- TP (6 h): 5.5 g/dL
- gamma-GTP (6 h): 1 IU/L
- TERMINAL_BW (9 h): 221.1 g
- APTT (9 h): 17 s
- Bas (9 h): 0%
- Eos (9 h): 0.8%
- Fbg (9 h): 281.4 mg/dL
- Hb (9 h): 13.8 g/dL
- Ht (9 h): 44%
- Lym (9 h): 80.2%
- MCH (9 h): 21.4 pg
- MCHC (9 h): 31.4%
- MCV (9 h): 68.2 fL
- Mono (9 h): 1.6%
- Neu (9 h): 17.8%
- PT (9 h): 15.6 s
- Plat (9 h): 107.2 x10_4/uL
- RBC (9 h): 644.8 x10_4/ul
- Ret (9 h): 7.5%
- WBC (9 h): 53.4 x10_2/uL
- KIDNEY_L (9 h): 0.9 g
- KIDNEY_R (9 h): 0.9 g
- KIDNEY_TOTAL (9 h): 1.8 g
- LIVER (9 h): 8.5 g
- A/G (9 h): 0.9
- ALP (9 h): 1491.8 IU/L
- ALT (9 h): 30 IU/L
- AST (9 h): 68 IU/L
- BUN (9 h): 8.2 mg/dL
- CRE (9 h): 0.2 mg/dL
- Ca (9 h): 10.9 mg/dL
- Cl (9 h): 105.4 meq/L
- DBIL (9 h): 0.018 mg/dL
- GLC (9 h): 176.6 mg/dL
- IP (9 h): 10.6 mg/dL
- K (9 h): 4.2 meq/L
- LDH (9 h): 69.6 IU/L
- Na (9 h): 140 meq/L
- PL (9 h): 125.8 mg/dL
- RALB (9 h): 2.5 g/dL
- TBIL (9 h): 0.074 mg/dL
- TC (9 h): 66.6 mg/dL
- TG (9 h): 44 mg/dL
- TP (9 h): 5.5 g/dL
- gamma-GTP (9 h): 1 IU/L
- TERMINAL_BW (24 h): 222.4 g
- APTT (24 h): 16.6 s
- Bas (24 h): 0%
- Eos (24 h): 0.8%
- Fbg (24 h): 255.8 mg/dL
- Hb (24 h): 14.2 g/dL
- Ht (24 h): 44.2%
- Lym (24 h): 83%
- MCH (24 h): 21.3 pg
- MCHC (24 h): 32.1%
- MCV (24 h): 66.4 fL
- Mono (24 h): 4%
- Neu (24 h): 11.6%
- PT (24 h): 15.7 s
- Plat (24 h): 121.3 x10_4/uL
- RBC (24 h): 665 x10_4/ul
- Ret (24 h): 6.3%
- WBC (24 h): 54.2 x10_2/uL
- KIDNEY_L (24 h): 0.9 g
- KIDNEY_R (24 h): 0.9 g
- KIDNEY_TOTAL (24 h): 1.9 g
- LIVER (24 h): 9.4 g
- A/G (24 h): 0.9
- ALP (24 h): 1571.8 IU/L
- ALT (24 h): 45.8 IU/L
- AST (24 h): 79.2 IU/L
- BUN (24 h): 14.4 mg/dL
- CRE (24 h): 0.2 mg/dL
- Ca (24 h): 11.6 mg/dL
- Cl (24 h): 106.8 meq/L
- DBIL (24 h): 0.016 mg/dL
- GLC (24 h): 184.8 mg/dL
- IP (24 h): 9.1 mg/dL
- K (24 h): 4.1 meq/L
- LDH (24 h): 64 IU/L
- Na (24 h): 142.2 meq/L
- PL (24 h): 122.4 mg/dL
- RALB (24 h): 2.6 g/dL
- TBIL (24 h): 0.068 mg/dL
- TC (24 h): 65.2 mg/dL
- TG (24 h): 50.8 mg/dL
- TP (24 h): 5.6 g/dL
- gamma-GTP (24 h): 1 IU/L
